# Laboratory results: patent US20060069132A1, “Azolecarboxamide herbicides” (priority 2004, published 2006)
# What was measured:
# Experiment in all cases: Test E pre-/postemergence herbicide test
# [1] = tested on: quackgrass; assay type: in vivo, Elytrigia repens
# Method in brief: (§1)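 Greenhouse response scored visually 12 to 14 days after treatment versus controls, 0 meaning no effect and 100 complete control. Compounds, formulated with surfactant in a non-phytotoxic solvent blend, were sprayed either preemergence after sowing or postemergence at the 1- to 4-leaf stage (2 to 18 cm).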
# [2] = tested on: downy bromegrass; assay type: in vivo, Bromus tectorum
# Method in brief: as §1
# [3] = tested on: common groundsel; assay type: in vivo, Senecio vulgaris
# Method in brief: as §1
# [4] = tested on: broadleaf signalgrass; assay type: in vivo, Brachiaria platyphylla
# Method in brief: as §1
# [5] = tested on: Italian ryegrass; assay type: in vivo, Lolium multiflorum
# Method in brief: as §1
# [6] = tested on: green foxtail; assay type: in vivo, Setaria viridis
# Method in brief: as §1
# [7] = tested on: guineagrass; assay type: in vivo, Panicum maximum
# Method in brief: as §1
# [8] = tested on: Surinam grass; assay type: in vivo, Urochloa decumbens
# Method in brief: as §1
# [9] = tested on: bermudagrass; assay type: in vivo, Cynodon dactylon
# Method in brief: as §1
# [10] = tested on: johnsongrass; assay type: in vivo, Sorghum halepense
# Method in brief: as §1
# [11] = tested on: prickly sida; assay type: in vivo, Sida spinosa
# Method in brief: as §1
# [12] = Postemergence, 500 g ai/ha, scale 0 to 100
# [13] = Postemergence, 250 g ai/ha, scale 0 to 100
# [14] = Preemergence, 62 g ai/ha, scale 0 to 100
# [15] = Preemergence, 125 g ai/ha, scale 0 to 100
# [16] = Preemergence, 250 g ai/ha, scale 0 (no effect) to 100 (complete control)
# [17] = Preemergence, 500 g ai/ha, scale 0 (no effect) to 100 (complete control)
# [18] = postemergence, 125 g ai/ha, scale 0 to 100
# [19] = postemergence, 62 g ai/ha, scale 0 to 100
compound,measurement,setting,value
"CCc1nn(C(C)(C)C)cc1C(=O)Nc1cc(C(=O)N(C)C)ccc1F [Compound 222, N-[5-[(dimethylamino)carbonyl]-2-fluorophenyl]-1-(1,1-dimethylethyl)-3-ethyl-1H-pyrazole-4-carboxamide]","Plant response rating, Quackgrass",[1]; [12],85
same,"Plant response rating, Quackgrass",[1]; [13],80
same,"Plant response rating, Quackgrass",[1]; [14],10
same,"Plant response rating, Quackgrass",[1]; [15],80
same,"Plant response rating, Quackgrass",[1]; [16],100
same,"Plant response rating, Quackgrass",[1]; [17],100
same,"Plant response rating, Quackgrass",[1]; [18],75
same,"Plant response rating, Quackgrass",[1]; [19],30
same,"Plant response rating, Bromegrass, Downy",[2]; [13],80
same,"Plant response rating, Bromegrass, Downy",[2]; [14],30
same,"Plant response rating, Bromegrass, Downy",[2]; [15],90
same,"Plant response rating, Bromegrass, Downy",[2]; [16],90
same,"Plant response rating, Bromegrass, Downy",[2]; [17],100
same,"Plant response rating, Bromegrass, Downy",[2]; [18],50
same,"Plant response rating, Bromegrass, Downy",[2]; [19],10
same,"Plant response rating, Groundsel",[3]; [12],100
same,"Plant response rating, Groundsel",[3]; [13],95
same,"Plant response rating, Groundsel",[3]; [14],30
same,"Plant response rating, Groundsel",[3]; [15],100
same,"Plant response rating, Groundsel",[3]; [16],100
same,"Plant response rating, Groundsel",[3]; [17],100
same,"Plant response rating, Groundsel",[3]; [18],70
same,"Plant response rating, Groundsel",[3]; [19],40
same,"Plant response rating, Signalgrass",[4]; [12],85
same,"Plant response rating, Signalgrass",[4]; [13],80
same,"Plant response rating, Signalgrass",[4]; [14],10
same,"Plant response rating, Signalgrass",[4]; [15],60
same,"Plant response rating, Signalgrass",[4]; [16],95
same,"Plant response rating, Signalgrass",[4]; [17],95
same,"Plant response rating, Signalgrass",[4]; [18],40
same,"Plant response rating, Signalgrass",[4]; [19],10
same,"Plant response rating, Ryegrass, Italian",[5]; [12],85
same,"Plant response rating, Ryegrass, Italian",[5]; [13],85
same,"Plant response rating, Ryegrass, Italian",[5]; [14],50
same,"Plant response rating, Ryegrass, Italian",[5]; [15],100
same,"Plant response rating, Ryegrass, Italian",[5]; [16],100
same,"Plant response rating, Ryegrass, Italian",[5]; [17],100
same,"Plant response rating, Ryegrass, Italian",[5]; [18],80
same,"Plant response rating, Ryegrass, Italian",[5]; [19],50
same,"Plant response rating, Foxtail, Green",[6]; [13],80
same,"Plant response rating, Foxtail, Green",[6]; [14],10
same,"Plant response rating, Foxtail, Green",[6]; [15],50
same,"Plant response rating, Foxtail, Green",[6]; [16],100
same,"Plant response rating, Foxtail, Green",[6]; [17],100
same,"Plant response rating, Foxtail, Green",[6]; [18],40
same,"Plant response rating, Foxtail, Green",[6]; [19],10
same,"Plant response rating, Guineagrass",[7]; [13],100
same,"Plant response rating, Guineagrass",[7]; [14],90
same,"Plant response rating, Guineagrass",[7]; [15],95
same,"Plant response rating, Guineagrass",[7]; [16],100
same,"Plant response rating, Guineagrass",[7]; [17],100
same,"Plant response rating, Guineagrass",[7]; [18],70
same,"Plant response rating, Guineagrass",[7]; [19],70
same,"Plant response rating, Surinam Grass",[8]; [13],80
same,"Plant response rating, Surinam Grass",[8]; [15],90
same,"Plant response rating, Surinam Grass",[8]; [17],100
same,"Plant response rating, Surinam Grass",[8]; [18],80
same,"Plant response rating, Surinam Grass",[8]; [19],50
same,"Plant response rating, Bermudagrass",[9]; [12],80
same,"Plant response rating, Bermudagrass",[9]; [13],80
same,"Plant response rating, Bermudagrass",[9]; [14],80
same,"Plant response rating, Bermudagrass",[9]; [15],100
same,"Plant response rating, Bermudagrass",[9]; [16],100
same,"Plant response rating, Bermudagrass",[9]; [17],100
same,"Plant response rating, Bermudagrass",[9]; [18],80
same,"Plant response rating, Bermudagrass",[9]; [19],60
same,"Plant response rating, Johnsongrass",[10]; [13],60
same,"Plant response rating, Johnsongrass",[10]; [14],70
same,"Plant response rating, Johnsongrass",[10]; [15],80
same,"Plant response rating, Johnsongrass",[10]; [16],90
same,"Plant response rating, Johnsongrass",[10]; [17],100
same,"Plant response rating, Johnsongrass",[10]; [18],60
same,"Plant response rating, Johnsongrass",[10]; [19],10
same,"Plant response rating, Prickly Sida",[11]; [12],100
same,"Plant response rating, Prickly Sida",[11]; [13],100
same,"Plant response rating, Prickly Sida",[11]; [14],20
same,"Plant response rating, Prickly Sida",[11]; [15],70
same,"Plant response rating, Prickly Sida",[11]; [16],100
same,"Plant response rating, Prickly Sida",[11]; [17],100
same,"Plant response rating, Prickly Sida",[11]; [18],100
same,"Plant response rating, Prickly Sida",[11]; [19],90
CCc1nn(C(C)C)nc1C(=O)Nc1cccc(C(=O)N(C)CC)c1 [Compound 386],"Plant response rating, Quackgrass",[1]; [15],80
same,"Plant response rating, Quackgrass",[1]; [16],90
same,"Plant response rating, Bromegrass, Downy",[2]; [15],10
same,"Plant response rating, Bromegrass, Downy",[2]; [16],40
same,"Plant response rating, Groundsel",[3]; [15],30
same,"Plant response rating, Groundsel",[3]; [16],50
same,"Plant response rating, Signalgrass",[4]; [15],30
same,"Plant response rating, Signalgrass",[4]; [16],85
same,"Plant response rating, Ryegrass, Italian",[5]; [15],60
same,"Plant response rating, Ryegrass, Italian",[5]; [16],95
same,"Plant response rating, Foxtail, Green",[6]; [15],60
same,"Plant response rating, Foxtail, Green",[6]; [16],95
same,"Plant response rating, Guineagrass",[7]; [15],80
same,"Plant response rating, Guineagrass",[7]; [16],100
same,"Plant response rating, Surinam Grass",[8]; [15],80
same,"Plant response rating, Bermudagrass",[9]; [15],80
same,"Plant response rating, Bermudagrass",[9]; [16],95
same,"Plant response rating, Johnsongrass",[10]; [15],75
same,"Plant response rating, Johnsongrass",[10]; [16],80
same,"Plant response rating, Prickly Sida",[11]; [15],100
same,"Plant response rating, Prickly Sida",[11]; [16],100
CCNC(=O)c1ccc(F)c(NC(=O)c2cn(C(C)(C)C)nc2CC)c1 [Compound 193],"Plant response rating, Quackgrass",[1]; [12],80
same,"Plant response rating, Quackgrass",[1]; [13],80
same,"Plant response rating, Quackgrass",[1]; [14],10
same,"Plant response rating, Quackgrass",[1]; [15],60
same,"Plant response rating, Quackgrass",[1]; [16],70
same,"Plant response rating, Quackgrass",[1]; [17],95
same,"Plant response rating, Quackgrass",[1]; [18],70
same,"Plant response rating, Quackgrass",[1]; [19],0
same,"Plant response rating, Bromegrass, Downy",[2]; [12],80
same,"Plant response rating, Bromegrass, Downy",[2]; [13],70
same,"Plant response rating, Bromegrass, Downy",[2]; [14],10
same,"Plant response rating, Bromegrass, Downy",[2]; [15],30
same,"Plant response rating, Bromegrass, Downy",[2]; [16],80
same,"Plant response rating, Bromegrass, Downy",[2]; [17],90
same,"Plant response rating, Bromegrass, Downy",[2]; [18],30
same,"Plant response rating, Bromegrass, Downy",[2]; [19],20
same,"Plant response rating, Groundsel",[3]; [12],100
same,"Plant response rating, Groundsel",[3]; [13],70
same,"Plant response rating, Groundsel",[3]; [14],20
same,"Plant response rating, Groundsel",[3]; [15],100
same,"Plant response rating, Groundsel",[3]; [16],100
same,"Plant response rating, Groundsel",[3]; [17],100
same,"Plant response rating, Groundsel",[3]; [18],40
same,"Plant response rating, Groundsel",[3]; [19],20
same,"Plant response rating, Signalgrass",[4]; [12],80
same,"Plant response rating, Signalgrass",[4]; [13],75
same,"Plant response rating, Signalgrass",[4]; [14],10
same,"Plant response rating, Signalgrass",[4]; [15],60
same,"Plant response rating, Signalgrass",[4]; [16],70
same,"Plant response rating, Signalgrass",[4]; [17],95
same,"Plant response rating, Signalgrass",[4]; [18],50
same,"Plant response rating, Signalgrass",[4]; [19],10
same,"Plant response rating, Ryegrass, Italian",[5]; [12],95
same,"Plant response rating, Ryegrass, Italian",[5]; [13],95
same,"Plant response rating, Ryegrass, Italian",[5]; [14],20
same,"Plant response rating, Ryegrass, Italian",[5]; [15],90
same,"Plant response rating, Ryegrass, Italian",[5]; [16],100
same,"Plant response rating, Ryegrass, Italian",[5]; [17],100
same,"Plant response rating, Ryegrass, Italian",[5]; [18],60
same,"Plant response rating, Ryegrass, Italian",[5]; [19],30
same,"Plant response rating, Foxtail, Green",[6]; [12],90
same,"Plant response rating, Foxtail, Green",[6]; [13],50
same,"Plant response rating, Foxtail, Green",[6]; [14],10
same,"Plant response rating, Foxtail, Green",[6]; [15],30
same,"Plant response rating, Foxtail, Green",[6]; [16],80
same,"Plant response rating, Foxtail, Green",[6]; [17],100
same,"Plant response rating, Foxtail, Green",[6]; [18],20
same,"Plant response rating, Foxtail, Green",[6]; [19],10
same,"Plant response rating, Guineagrass",[7]; [12],100
same,"Plant response rating, Guineagrass",[7]; [13],70
same,"Plant response rating, Guineagrass",[7]; [14],60
same,"Plant response rating, Guineagrass",[7]; [15],70
same,"Plant response rating, Guineagrass",[7]; [16],100
same,"Plant response rating, Guineagrass",[7]; [17],100
same,"Plant response rating, Guineagrass",[7]; [18],60
same,"Plant response rating, Guineagrass",[7]; [19],20
same,"Plant response rating, Surinam Grass",[8]; [12],90
same,"Plant response rating, Surinam Grass",[8]; [13],85
same,"Plant response rating, Surinam Grass",[8]; [15],80
same,"Plant response rating, Surinam Grass",[8]; [17],100
same,"Plant response rating, Surinam Grass",[8]; [18],70
same,"Plant response rating, Surinam Grass",[8]; [19],10
same,"Plant response rating, Bermudagrass",[9]; [12],95
same,"Plant response rating, Bermudagrass",[9]; [13],90
same,"Plant response rating, Bermudagrass",[9]; [14],85
same,"Plant response rating, Bermudagrass",[9]; [15],100
same,"Plant response rating, Bermudagrass",[9]; [16],100
same,"Plant response rating, Bermudagrass",[9]; [17],100
same,"Plant response rating, Bermudagrass",[9]; [18],90
same,"Plant response rating, Bermudagrass",[9]; [19],60
same,"Plant response rating, Johnsongrass",[10]; [12],80
same,"Plant response rating, Johnsongrass",[10]; [13],70
same,"Plant response rating, Johnsongrass",[10]; [14],20
same,"Plant response rating, Johnsongrass",[10]; [15],75
same,"Plant response rating, Johnsongrass",[10]; [16],85
same,"Plant response rating, Johnsongrass",[10]; [17],95
same,"Plant response rating, Johnsongrass",[10]; [18],70
same,"Plant response rating, Johnsongrass",[10]; [19],40
same,"Plant response rating, Prickly Sida",[11]; [12],95
same,"Plant response rating, Prickly Sida",[11]; [13],75
same,"Plant response rating, Prickly Sida",[11]; [14],20
same,"Plant response rating, Prickly Sida",[11]; [15],70
same,"Plant response rating, Prickly Sida",[11]; [16],70
same,"Plant response rating, Prickly Sida",[11]; [17],95
same,"Plant response rating, Prickly Sida",[11]; [18],60
same,"Plant response rating, Prickly Sida",[11]; [19],60
